Data: patent US20180148470A1, “CHOLIC ACID DERIVATIVE, AND PREPARATION METHOD AND MEDICAL USE THEREOF” (Jiangsu Hansoh Pharmaceutical Group Co., Ltd., priority 2015, published 2018)

Assays:
[1] = molecular target: T1, FXR (Homo sapiens, UniProt Q96RI1); assay: FXR reporter gene expression test (dual luciferase, FXR Gal4 reporter in HepG2 cells); format: cell-based; conditions: HepG2 cells transiently transfected with FXR Gal4 reporter, 18 hours
T1 sequence (Q96RI1 262-486 limits assumed): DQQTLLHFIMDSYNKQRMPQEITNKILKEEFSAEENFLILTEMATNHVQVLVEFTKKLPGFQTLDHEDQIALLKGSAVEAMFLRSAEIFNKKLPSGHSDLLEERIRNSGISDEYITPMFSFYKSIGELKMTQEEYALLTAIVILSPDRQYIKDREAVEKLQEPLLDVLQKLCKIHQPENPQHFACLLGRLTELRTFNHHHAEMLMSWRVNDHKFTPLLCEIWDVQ
Excerpt: FXR Reporter Gene Expression Test
To analyze the effect of testing compounds on FXR-regulated gene expression, we used Promega's dual luciferase assay system (Promega #E1980) to detect the effect of the compounds on the FXR reporter gene in HepG2 hepatoma cell line (ATCC #HB-8065), which was transiently transfected with the FXR Gal4 reporter gene fragment. Specific experimental methods are as follows:
1. HepG2 Cell Culture and Maintenance
Cells were digested and cells with appropriate density were grown in 10 mL complete medium and then cultivated for 24 hours under 37° C., 5% CO2 humidity conditions.
2. Cell planting and transfection. Transfection reagent was Fugene HD (Promega#E231A)
(1) The transfection mixture was prepared according to the following table
(2) The mixture in the tube was vigorously mixed and incubated at room temperature for 15 minutes;
(3) The cells were digested in the culture dish and counted;
(4) The cell suspension was diluted to the desired volume of 600,000/mL (96-well plates 100 μL/well);
(5) The required volume of the transfection mixture was added to the cell suspension, followed by plating at 100 μL/well;
(6) Incubated for 24 hours under 37° C., 5% CO2 humidity conditions.
3. Treatment of the Compound
(1) 10 mM of mother liquor of the compound was prepared and then serially diluted 3 times with DMSO;
(2) 10 μL of compound was added to 90 μL of complete medium (10×);
(3) 5 μL of the solution of the compound (21×) was added to each well;
(4) Incubated for 18 hours under 37° C., 5% CO2 humidity conditions.
The firefly luciferase and the renilla luciferase signal (Promega #E1980) were detected by Promega's dual-luciferase assay system.
(2) Calculating the agonist rate
Agonist rate=(X−Min)/(Max−Min)*100% • X represents the F/R value of each concentration; • Min represents the F/R value without adding compound; • Max represents the F/R value of the reference compound.
(3) EC50 was calculated according to GraphPrism 5.0

[2] = molecular target: T2, FXR receptor (Homo sapiens, UniProt Q96RI1); assay: FXR receptor binding activity assay (TR-FRET; GST-FXR-LBD / SRC1 fragment); format: biochemical; conditions: FXR-LBD binding to SRC1 fragment, agonist rate
T2 construct: Prepared 2× GST-labeled FXR-LBD/anti-GST Eu mixture to the required volume, the concentration of GST-FXR-LBD was 6 nM; purchased Life Technology Invitrogen PV4835
T2 sequence (Q96RI1 262-486 limits assumed): T1 sequence (Q96RI1 262-486 limits assumed)
T2 sequence (Q15788 676-700 partner limits assumed): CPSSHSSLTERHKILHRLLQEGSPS
Excerpt: FXR Receptor Binding Activity Assay (Time-Resolved Fluorescence Detection Method TR-FRET Method)
To test the effect of the present compounds on FXR receptor binding, we selected the commercial FXR receptor binding activity assay kit to test the effect of the compounds on FXR and its binding protein fragments (LBD structural domain binds to SRC1 fragment) (kit supplier: Life Technology Invitrogen Catalog: PV4835; cisbio Catalog: 610SAXLA and 61GSTKLA). Specific method was described in the kit instructions. The operation was as follows:
1. Prepared 2× GST-labeled FXR-LBD/anti-GST Eu mixture to the required volume, the concentration of GST-FXR-LBD was 6 nM, Eu was 50 nL/well.
2. Prepared 2× biotin-labeled SRC1/[…] (SA-APC) mixture to the required volume, the concentration of SRC1 was 1000 nM, and […] was 50 nL/well.
3. 2× GST-FXR/Eu and SRC1/SA-APC were mixed in a proportion of 1:1.
4. 20 μL of a mixture of GST-FXR/Eu and SRC1/SA-APC was added to a 384-well plate containing the compounds to be tested.
5. Centrifuged for 1 minute at 1000 rpm; incubated for 180 minutes at room temperature.
6. Time-resolved fluorescence detection: EnVision reader.
(1) the value at 665 nm divided by the value at 615 nm;
(2) calculating the agonist rate
Agonist rate=(X−Min)/(Max−Min)*100% • X represents the 665/615 value for each concentration; • Min represents the 665/615 value without adding compound; • Max represents the 665/615 value of the reference compound.

EC50 [1] [nM]	EC50 [2] [nM]	Structure (SMILES)
3370	312	C[C@H](CC1SC(=O)NC1=O)C1CCC2C3C(CC[C@@]21C)[C@@]1(C)CC[C@@H](O)C[C@H]1C[C@H]3O (stereo partly drawn) [Example 15-β, 5-((2R)-2-((3R,5 S,7R,10S,13R)-3,7-dihydroxy-10,13-dimethylhexadecahydro-1H-cyclopenta[a]phenanthrene-17-yl)propyl)thiazolidine-2,4-dione]
–	31	CC[C@H]1[C@@H](O)C2C3CCC([C@H](C)CCC(=O)NCS(=O)(=O)O)[C@@]3(C)CCC2[C@@]2(C)CC[C@@H](O)C[C@@H]12 (stereo partly drawn) [Example 5, ((4R)-4-((3R,5S,6R,7R,10S,13R)-6-ethyl-3,7-dihydroxy-10,13-dimethylhexadecahydro-1H-cyclopenta[a]phenanthrene-17-yl)pentanoylamino) methanesulfonic acid]
–	1270	CC[C@H]1[C@@H](O)C2C3CCC([C@H](C)CCC(=O)NCP(=O)(O)O)[C@@]3(C)CCC2[C@@]2(C)CC[C@@H](O)C[C@@H]12 (stereo partly drawn) [Example 6, (((4R)-4-((3R,5S,6R,7R,10S,13R)-6-ethyl-3,7-dihydroxy-10,13-dimethylhexadecahydro-1H-cyclopenta[a]phenanthrene-17-yl)pentanoylamino)methyl)phosphonic acid]
5200	283	CC[C@H]1[C@@H](O)C2C3CCC([C@H](C)CCc4nnc(C(=O)O)o4)[C@@]3(C)CCC2[C@@]2(C)CC[C@@H](O)C[C@@H]12 (stereo partly drawn) [Example 13, 5-((3R)-3-((3R, 5S, 6R, 7R, 10S,13R)-6-ethyl-3,7-dihydroxy-10,13-dimethylhexadecahydro-1H-cyclopenta[a]phenanthrene-17-yl)butyl) -1,3,4-oxadiazole-2-carboxylic acid]
–	70	CCOC(=O)c1nnc(CC[C@@H](C)C2CCC3C4C(CC[C@@]32C)[C@@]2(C)CC[C@@H](O)C[C@H]2[C@@H](CC)[C@H]4O)o1 (stereo partly drawn) [Example 13-ii]
2600	214	CC[C@@H]1[C@@H]2[C@@H](F)[C@H](O)CC[C@]2(C)C2CC[C@@]3(C)C(CCC3[C@H](C)CCC(=O)O)C2[C@@H]1O (stereo partly drawn) [Example 1, (4R)-4-((3R, 4R, 5S, 6R, 7R, 10R, 13R)-6-ethyl-4-fluoro-3,7-dihydroxy-10,13-dimethylhexadecahydro-1H-cyclopenta[a]phenanthrene-17-yl)pentanoic acid]
3390	167	CC[C@H]1[C@@H](O)C2C3CCC([C@H](C)CCC(=O)NO)[C@@]3(C)CCC2[C@@]2(C)CC[C@@H](O)C[C@@H]12 (stereo partly drawn) [Example 2, (4R)-4-((3R,5S,6R,7R,10S,13R)-6-ethyl-3,7-dihydroxy-10,13-dimethylhexadecahydro-1H-cyclopenta[a]phenanthrene-17-yl)-N-hydroxypentanamide]
1060	54	CC[C@H]1[C@@H](O)C2C3CCC([C@H](C)CCC(=O)NOC)[C@@]3(C)CCC2[C@@]2(C)CC[C@@H](O)C[C@@H]12 (stereo partly drawn) [Example 4, (4R)-4-((3R,5S,6R,7R,10S,13R)-6-ethyl-3,7-dihydroxy-10,13-dimethylhexadecahydro-1H-cyclopenta[a]phenanthrene-17-yl)-N-methoxypentanamide]
–	143	C[C@H](CC1SC(=O)NC1=O)C1CCC2C3C(CC[C@@]21C)[C@@]1(C)CC[C@@H](O)C[C@H]1C[C@H]3O (stereo partly drawn) [Example 15-α, 5-((2R)-2-((3R,5 S,7R,10S,13R)-3,7-dihydroxy-10,13-dimethylhexadecahydro-1H-cyclopenta[a]phenanthrene-17-yl)propyl)thiazolidine-2,4-dione]
2530	16	CC[C@H]1[C@@H](O)C2C3CCC([C@H](C)CCC(=O)NC#N)[C@@]3(C)CCC2[C@@]2(C)CC[C@@H](O)C[C@@H]12 (stereo partly drawn) [Example 3, (4R)-N-cyano-4-((3R, 5S, 6R, 7R, 10S, 13R)-6-ethyl-3,7-dihydroxy-10,13-dimethylhexadecahydro-1H-cyclopenta[a]phenanthrene-17-yl)pentanamide]
3370	228	CC[C@H]1[C@@H](O)C2C3CCC([C@H](C)CCC(=O)NOCCO)[C@@]3(C)CCC2[C@@]2(C)CC[C@@H](O)C[C@@H]12 (stereo partly drawn) [Example 8, (4R)-4-((3R, 5S, 6R, 7R, 10S, 13R)-6-ethyl-3,7-dihydroxy-10,13-dimethylhexadecahydro-1H-cyclopenta[a]phenanthrene-17-yl)-N-(2-hydroxyethoxy)pentanamide]
–	552	CC[C@H]1[C@@H](O)C2C3CCC([C@H](C)CCC(=O)NCCP(=O)(O)O)[C@@]3(C)CCC2[C@@]2(C)CC[C@@H](O)C[C@@H]12 (stereo partly drawn) [Example 7, (2-((4R)-4-((3R,5 S,6R,7R,10S,13R)-6-ethyl-3,7-dihydroxy-10,13-dimethylhexadecahydro-1H-cyclopenta[a]phenanthrene-17-yl)pentanoylamino)ethyl) phosphonic acid]
1400	61	CC[C@H]1[C@@H](O)C2C3CCC([C@H](C)CCc4n[nH]c(=O)o4)[C@@]3(C)CCC2[C@@]2(C)CC[C@@H](O)C[C@@H]12 (stereo partly drawn) [Example 10, 5-((3R)-3-((3R,5S,6R,7R,10S,13R)-6-ethyl-3,7-dihydroxy-10,13-dimethylhexadecane-1H-cyclopenta[a]phenanthrene-17-yl)butyl)-1,3,4-oxadiazol-2 (3H) -one]
5200	366	CC[C@H]1[C@@H](O)C2C3CCC([C@H](C)CCc4nnc[nH]4)[C@@]3(C)CCC2[C@@]2(C)CC[C@@H](O)C[C@@H]12 (stereo partly drawn) [Example 11, (3R,5S,6R,7R,10S,13R)-17-((R)-4-(4H-1,2,4-triazol-3-yl)butan-2-yl)-6-ethyl-10,13-dimethylhexadecahydro-1H-cyclopenta[a] phenanthrene-3,7-diphenol]
1360	52	CC[C@H]1[C@@H](O)C2C3CCC([C@H](C)CCc4noc(=O)[nH]4)[C@@]3(C)CCC2[C@@]2(C)CC[C@@H](O)C[C@@H]12 (stereo partly drawn) [Example 12, 3-((3R)-3-((3R, 5S, 6R, 7R, 10S, 13R)-6-ethyl-3,7-dihydroxy-10,13-dimethylhexadecahydro-1H-cyclopenta[a]phenanthrene-17-yl)butyl)-1,2,4-oxadiazol-5(4H)-one]

Structure (SMILES)	EC50 [1] [nM]	EC50 [2] [nM]
CC[C@H]1[C@@H](O)C2C3CCC([C@H](C)CC4SC(=O)NC4=O)[C@@]3(C)CCC2[C@@]2(C)CC[C@@H](O)C[C@@H]12 (single isomer, unassigned) [Example 14-α]	63	13
